Measurements as given in US4668664A (L'Oreal, priority 1985, dated 1987).
Values after ≈ are worked out from the molar mass of the structure shown.

Key:
[1] = test system: propionibacterium acnes P 37 strain; assay: Minimal Inhibiting Concentration (MIC) by the dilution method, P 37 strain; format: cell-based; settings: Cutibacterium acnes, P37STRAIN
Description: (§1) This method is described and employed by G. A. Denys et al, Antimicrobial Agents and Chemotherapy (1983), 23, 335-337 and J. J. Leyden et al, J. Am. Acad. Dermatol. (1983) 8 (1) 41-5, and utilizes as the strain of propionibacterium acnes, the P 37 strain furnished by Cunliffe and Holland.

P 37 E⊕ (sensitive) = assay: Minimal Inhibiting Concentration (MIC) by the dilution method, sensitive strain P 37 E⊕; format: cell-based, propionibacterium acnes; settings: Cutibacterium acnes
Description: as §1
(§2) After display of a standardized inoculum (DO=1.8 to 450 nm) on gelose medium (RCM+furazolidone), in a Petri dish, a disc of 9 mm in diameter is deposited in its center.
The two types of colonies are then retained by pulling away from the gelose medium (sterilized platinum loop):
(§3) (2) at 1 cm beyond the periphery of the inhibition zone the strains denominated P 37 E⊕ are retained.

P 37 E⊖ (resistant) = assay: Minimal Inhibiting Concentration (MIC) by the dilution method, resistant strain P 37 E⊖; format: cell-based, propionibacterium acnes; settings: for MIC: Cutibacterium acnes, read-out: Minimal Inhibiting Concentration (MIC), P 37 E⊖ (resistant), dilution method; for relative activity on strain P 37 E⊖: in words, vs reference fatty esters / erythromycin
Experimental: as §1, §2
(§4) After 6 days at 36° C. in an anaerobic medium (GAS-PAK system, B.B.L.) a growth inhibition zone of the strain is clearly visible (total diameter=42 mm), the great majority of the colonies being situated at the periphery of the inhibition zone.
On the other hand, at its interior a few colonies clearly appear.
The two types of colonies are then retained by pulling away from the gelose medium (sterilized platinum loop): […]

P 37 = assay: IC 50 study (inhibiting concentration at 50%), P 37; format: cell-based, propionibacterium acnes; settings: Cutibacterium acnes, 50% survivors at constant culture time, read-out: IC 50 (inhibiting concentration at 50%; column head printed MIC)
P 37 E⊕ = assay: IC 50 study (inhibiting concentration at 50%), P 37 E⊕; format: cell-based, propionibacterium acnes; settings: Cutibacterium acnes, read-out: IC 50 (inhibiting concentration at 50%; column head printed MIC)
Description: as §3

P 37 E⊖ = assay: IC 50 study (inhibiting concentration at 50%), P 37 E⊖; format: cell-based, propionibacterium acnes; settings: Cutibacterium acnes, read-out: IC 50 (inhibiting concentration at 50%; column head printed MIC)
P 37 strain = assay: Growth inhibition zone, disc on gelose medium; format: cell-based, propionibacterium acnes; settings: Cutibacterium acnes, 144 h; read-out: growth inhibition zone, total diameter
Experimental: as §2, §4

In the case of CC[C@H]1OC(=O)[C@H](C)[C@@H](O[C@H]2C[C@@](C)(OC)[C@@H](O)[C@H](C)O2)[C@H](C)[C@@H](O[C@@H]2O[C@H](C)C[C@H](N(C)C)[C@H]2O)[C@](C)(O)C[C@@H](C)C(=O)[C@H](C)[C@@H](O)[C@]1(C)O [Erythromycin, erythromycin A], the MIC [1] is reported as 0.78 µg/mL (≈ 1.06 µM), the MIC (P 37 E⊕ (sensitive)) is reported as 0.78 µg/mL (≈ 1.06 µM) and the MIC (P 37 E⊖ (resistant)) is reported as > 50 µg/mL. For the same molecule, the “Minimal Inhibiting Concentration (MIC)” value (P 37 E⊖ (resistant); P 37 E⊖ (resistant), dilution method) was 50 µg/mL, the IC50 (P 37) was 50 µg/mL (≈ 68.1 µM) and the IC50 (P 37 E⊕) was 5 µg/mL (≈ 6.81 µM). It also gave an IC50 (P 37 E⊖) of ~100 µg/mL (≈ 136 µM) and a zone of inhibition at 50 µg/disc (P 37 strain) of 42 mm.

In the case of CCCCC/C=C\C/C=C\C/C=C\C/C=C\CCCC(=O)O[C@H]1[C@H](O[C@@H]2[C@@H](C)[C@H](O[C@H]3C[C@@](C)(OC)[C@@H](O)[C@H](C)O3)[C@@H](C)C(=O)O[C@H](CC)[C@@](C)(O)[C@H](O)[C@@H](C)C(=O)[C@H](C)C[C@@]2(C)O)O[C@H](C)C[C@@H]1N(C)C [O--arachidonoyl-2', O-arachidonoyl-2' erythromycin A], the MIC (P 37 E⊕ (sensitive)) is reported as 6.25 µg/mL (≈ 6.13 µM) and the MIC (P 37 E⊖ (resistant)) is reported as > 50 µg/mL.

For CCCCC/C=C/C/C=C/CCCCCCCC(=O)O[C@H]1[C@H](O[C@@H]2[C@@H](C)[C@H](O[C@H]3C[C@@](C)(OC)[C@@H](O)[C@H](C)O3)[C@@H](C)C(=O)O[C@H](CC)[C@@](C)(O)[C@H](O)[C@@H](C)C(=O)[C@H](C)C[C@@]2(C)O)O[C@H](C)C[C@@H]1N(C)C [O--linoelaidoyl-2', O-linoelaidoyl-2' erythromycin A], the MIC (P 37 E⊕ (sensitive)) was 25 µg/mL (≈ 25.1 µM), the MIC (P 37 E⊖ (resistant)) was 100 µg/mL (≈ 100 µM) and the “relative activity on strain P 37 E⊖” value (P 37 E⊖ (resistant)) was “less active”.

In the case of CCCCC/C=C/C/C=C/CCCCCCCC(=O)O[C@H]1[C@H](C)O[C@@H](O[C@H]2[C@H](C)[C@@H](O[C@@H]3O[C@H](C)C[C@H](N(C)C)[C@H]3O)[C@](C)(O)C[C@@H](C)C(=O)[C@H](C)[C@@H](O)[C@](C)(O)[C@@H](CC)OC(=O)[C@@H]2C)C[C@@]1(C)OC [O--linoelaidoyl-4", O-linoelaidoyl-4" erythromycin A], the MIC (P 37 E⊕ (sensitive)) is reported as 25 µg/mL (≈ 25.1 µM), the MIC (P 37 E⊖ (resistant)) is reported as 100 µg/mL (≈ 100 µM) and the “relative activity on strain P 37 E⊖” value (P 37 E⊖ (resistant)) is reported as “less active”.

Work on CCCCC/C=C\C/C=C\CCCCCCCC(=O)O[C@H]1[C@H](O[C@@H]2[C@@H](C)[C@H](O[C@H]3C[C@@](C)(OC)[C@@H](O)[C@H](C)O3)[C@@H](C)C(=O)O[C@H](CC)[C@@](C)(O)[C@H](O)[C@@H](C)C(=O)[C@H](C)C[C@@]2(C)O)O[C@H](C)C[C@@H]1N(C)C [O--linolenoyl-2', O-linoleoyl-2' erythromycin A] yielded an MIC (P 37 E⊕ (sensitive)) of 4 µg/mL (≈ 4.01 µM) and an MIC (P 37 E⊖ (resistant)) of 16 µg/mL (≈ 16.1 µM).

CCCCC/C=C\C/C=C\CCCCCCCC(=O)O[C@H]1[C@H](C)O[C@@H](O[C@H]2[C@H](C)[C@@H](O[C@@H]3O[C@H](C)C[C@H](N(C)C)[C@H]3O)[C@](C)(O)C[C@@H](C)C(=O)[C@H](C)[C@@H](O)[C@](C)(O)[C@@H](CC)OC(=O)[C@@H]2C)C[C@@]1(C)OC [O--linoleoyl-4", O-linoleoyl-4" erythromycin A] showed an MIC (P 37 E⊕ (sensitive)) of 3.5 µg/mL (≈ 3.51 µM) and an MIC (P 37 E⊖ (resistant)) of 28 µg/mL (≈ 28.1 µM).

In the case of CCCCCCCC/C=C\CCCCCCCC(=O)O[C@H]1[C@H](O[C@@H]2[C@@H](C)[C@H](O[C@H]3C[C@@](C)(OC)[C@@H](O)[C@H](C)O3)[C@@H](C)C(=O)O[C@H](CC)[C@@](C)(O)[C@H](O)[C@@H](C)C(=O)[C@H](C)C[C@@]2(C)O)O[C@H](C)C[C@@H]1N(C)C [O--oleoyl-2'], the MIC (P 37 E⊕ (sensitive)) is reported as 50 µg/mL (≈ 50.1 µM) and the MIC (P 37 E⊖ (resistant)) is reported as 100 µg/mL (≈ 100 µM).

In the case of CCCCCCCCCCCCCCCCCC(=O)O[C@H]1[C@H](O[C@@H]2[C@@H](C)[C@H](O[C@H]3C[C@@](C)(OC)[C@@H](O)[C@H](C)O3)[C@@H](C)C(=O)O[C@H](CC)[C@@](C)(O)[C@H](O)[C@@H](C)C(=O)[C@H](C)C[C@@]2(C)O)O[C@H](C)C[C@@H]1N(C)C [O--stearoyl-2'], the MIC (P 37 E⊕ (sensitive)) is reported as < 1.56 µg/mL and the MIC (P 37 E⊖ (resistant)) is reported as > 50 µg/mL.

With CC/C=C\C/C=C\C/C=C\CCCCCCCC(=O)O[C@H]1[C@H](C)O[C@@H](O[C@H]2[C@H](C)[C@@H](O[C@@H]3O[C@H](C)C[C@H](N(C)C)[C@H]3O)[C@](C)(O)C[C@@H](C)C(=O)[C@H](C)[C@@H](O)[C@](C)(O)[C@@H](CC)OC(=O)[C@@H]2C)C[C@@]1(C)OC [O--α-linolenoyl-4", O-α-linolenoyl-4" erythromycin A] the MIC (P 37 E⊕ (sensitive)) was 4.5 µg/mL (≈ 4.53 µM) and the MIC (P 37 E⊖ (resistant)) was 37 µg/mL (≈ 37.2 µM).
